Key:
Assay type in all cases: in vivo
[1] = system: wheat (Triticum aestivum); experiment: Test A postemergence, visual plant response rating; conditions: for Wheat plant response rating (0 to 100 scale): 500 g ai/ha, postemergence, 0 is no effect, 100 is complete control; for Wheat plant response rating: Postemergence, 125 g ai/ha, 0 to 100 scale (0 no effect, 100 complete control)
Method in brief: (§1)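 Ratings use a 0–100 visual scale (100 = complete control) against untreated controls, scored about 10 days after greenhouse treatment. Test chemicals were formulated in surfactant-containing non-phytotoxic solvent and applied either as soil spray after planting (preemergence) or onto one- to two-leaf, 2–10 cm plants (postemergence).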

[2] = system: foxtail, giant (giant foxtail, Setaria faberii); experiment: Test A postemergence, visual plant response rating; conditions: for Foxtail, Giant plant response rating (0 to 100 scale): 500 g ai/ha, postemergence, 0 is no effect, 100 is complete control; for Foxtail, Giant plant response rating: Postemergence, 125 g ai/ha, 0 to 100 scale (0 no effect, 100 complete control)
Method in brief: as §1

[3] = system: Italian ryegrass (Lolium multiflorum); experiment: Test A postemergence, visual plant response rating; conditions: for Ryegrass, Italian plant response rating (0 to 100 scale): 500 g ai/ha, postemergence, 0 is no effect, 100 is complete control; for Ryegrass, Italian plant response rating: Postemergence, 125 g ai/ha, 0 to 100 scale (0 no effect, 100 complete control)
Method in brief: as §1

[4] = system: barnyardgrass (Echinochloa crus-galli); experiment: Test A postemergence, visual plant response rating; conditions: for Barnyardgrass plant response rating (0 to 100 scale): 500 g ai/ha, postemergence, 0 is no effect, 100 is complete control; for Barnyardgrass plant response rating: Postemergence, 125 g ai/ha, 0 to 100 scale (0 no effect, 100 complete control)
Method in brief: as §1

[5] = system: pigweed (Amaranthus retroflexus); experiment: Test A postemergence, visual plant response rating; conditions: for Pigweed plant response rating (0 to 100 scale): 500 g ai/ha, postemergence, 0 is no effect, 100 is complete control; for Pigweed plant response rating: Postemergence, 125 g ai/ha, 0 to 100 scale (0 no effect, 100 complete control)
Method in brief: as §1

[6] = system: blackgrass (Alopecurus myosuroides); experiment: Test A postemergence, visual plant response rating; conditions: for Blackgrass plant response rating (0 to 100 scale): 500 g ai/ha, postemergence, 0 is no effect, 100 is complete control; for Blackgrass plant response rating: Postemergence, 125 g ai/ha, 0 to 100 scale (0 no effect, 100 complete control)
Method in brief: as §1

corn (Zea mays) = experiment: Test A postemergence, visual plant response rating; conditions: for Corn plant response rating (0 to 100 scale): 500 g ai/ha, postemergence, 0 is no effect, 100 is complete control; for Corn plant response rating: Postemergence, 125 g ai/ha, 0 to 100 scale (0 no effect, 100 complete control)
Method in brief: as §1

[7] = system: ragweed (common ragweed, Ambrosia elatior); experiment: Test A postemergence, visual plant response rating; conditions: for Ragweed plant response rating (0 to 100 scale): 500 g ai/ha, postemergence, 0 is no effect, 100 is complete control; for Ragweed plant response rating: Postemergence, 125 g ai/ha, 0 to 100 scale (0 no effect, 100 complete control)
Method in brief: as §1

[8] = system: galium (catchweed bedstraw, Galium aparine); experiment: Test A postemergence, visual plant response rating; conditions: for Galium plant response rating (0 to 100 scale): 500 g ai/ha, postemergence, 0 is no effect, 100 is complete control; for Galium plant response rating: Postemergence, 125 g ai/ha, 0 to 100 scale (0 no effect, 100 complete control)
Method in brief: as §1

kochia (Kochia scoparia) [9] = experiment: Test A postemergence, visual plant response rating; conditions: for Kochia plant response rating (0 to 100 scale): 500 g ai/ha, postemergence, 0 is no effect, 100 is complete control; for Kochia plant response rating: Postemergence, 125 g ai/ha, 0 to 100 scale (0 no effect, 100 complete control)
Method in brief: as §1

[10] = system: sedge, umbrella (small-flower umbrella sedge, Cyperus difformis); experiment: Test B flooded paddy test, visual plant response rating; conditions: 250 g ai/ha, Flood, applied to paddy water, 2-leaf stage, evaluated after 13 to 15 days
Method in brief: (§2)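 Flooded-pot treatment: water 3 cm over the soil, chemical delivered into that water, depth unchanged for the duration. Assessed by eye versus controls following 13–15 greenhouse days; plants were at 2 leaves when dosed.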

[11] = system: barnyardgrass (Echinochloa crus-galli); experiment: as above; conditions: 250 g ai/ha, Flood, applied to paddy water, 2-leaf stage, evaluated after 13 to 15 days
Method in brief: as §2

rice (Oryza sativa) = experiment: as above; conditions: 250 g ai/ha, Flood, applied to paddy water, 2-leaf stage, evaluated after 13 to 15 days
Method in brief: as §2

[12] = system: ducksalad (Heteranhera limosa); experiment: as above; conditions: 250 g ai/ha, Flood, applied to paddy water, 2-leaf stage, evaluated after 13 to 15 days
Method in brief: as §2

[13] = system: foxtail, giant (giant foxtail, Setaria faberii); experiment: Test A preemergence, visual plant response rating; conditions: for Foxtail, Giant plant response rating: 125 g ai/ha, preemergence, 0 to 100 scale, 0 no effect, 100 complete control; for Foxtail, Giant plant response rating (0 to 100 scale): 500 g ai/ha Preemergence, approx. 10 days
Method in brief: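 Preemergence: seeds in loam/sand blend given directed soil spray of compound in non-phytotoxic solvent with surfactant. Postemergence: plants 2–10 cm, one- to two-leaf stage, sprayed with same formulation. Visual injury rated vs untreated controls after ~10 days in greenhouse, 0 (no effect) to 100 (complete control).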

[14] = system: Italian ryegrass (Lolium multiflorum); experiment: Test A preemergence, visual plant response rating; conditions: for Ryegrass, Italian plant response rating: 125 g ai/ha, preemergence, 0 to 100 scale, 0 no effect, 100 complete control; for Ryegrass, Italian plant response rating (0 to 100 scale): 500 g ai/ha Preemergence, approx. 10 days
Method in brief: as §1

[15] = system: barnyardgrass (Echinochloa crus-galli); experiment: Test A preemergence, visual plant response rating; conditions: for Barnyardgrass plant response rating: 125 g ai/ha, preemergence, 0 to 100 scale, 0 no effect, 100 complete control; for Barnyardgrass plant response rating (0 to 100 scale): 500 g ai/ha Preemergence, approx. 10 days
Method in brief: as §1

[16] = system: pigweed (Amaranthus retroflexus); experiment: Test A preemergence, visual plant response rating; conditions: for Pigweed plant response rating: 125 g ai/ha, preemergence, 0 to 100 scale, 0 no effect, 100 complete control; for Pigweed plant response rating (0 to 100 scale): 500 g ai/ha Preemergence, approx. 10 days
Method in brief: as §1

[17] = system: ragweed (common ragweed, Ambrosia elatior); experiment: Test A preemergence, visual plant response rating; conditions: for Ragweed plant response rating (0 to 100 scale): 500 g ai/ha Preemergence, approx. 10 days
Method in brief: as §1

kochia (Kochia scoparia) [18] = experiment: Test A preemergence, visual plant response rating; conditions: for Kochia plant response rating: 125 g ai/ha, preemergence, 0 to 100 scale, 0 no effect, 100 complete control; for Kochia plant response rating (0 to 100 scale): 500 g ai/ha Preemergence, approx. 10 days
Method in brief: as §1

SMILES | Wheat plant response rating (0 to 100 scale) [1] | Wheat plant response rating [1] | Foxtail, Giant plant response rating (0 to 100 scale) [2] | Foxtail, Giant plant response rating [2] | Ryegrass, Italian plant response rating (0 to 100 scale) [3] | Ryegrass, Italian plant response rating [3] | Barnyardgrass plant response rating (0 to 100 scale) [4] | Barnyardgrass plant response rating [4] | Pigweed plant response rating (0 to 100 scale) [5] | Pigweed plant response rating [5] | Blackgrass plant response rating (0 to 100 scale) [6] | Blackgrass plant response rating [6] | Corn plant response rating (0 to 100 scale) (corn (Zea mays)) | Corn plant response rating (corn (Zea mays)) | Ragweed plant response rating (0 to 100 scale) [7] | Ragweed plant response rating [7] | Galium plant response rating (0 to 100 scale) [8] | Galium plant response rating [8] | Kochia plant response rating (0 to 100 scale) (kochia (Kochia scoparia) [9]) | Kochia plant response rating (kochia (Kochia scoparia) [9]) | other results
CON=C(c1cccc(C(F)(F)F)c1Cl)c1c(O)c(C)nn(C)c1=O [Compound 102] | 30 | 0 | 30 | 10 | 30 | 0 | 30 | 20 | 40 | 20 | 30 | 0 | 0 | 0 | 30 | 10 | 70 | 40 | 20 | 20 | Plant response rating, Sedge, Umbrella (0 to 100 scale, 0 is no effect, 100 is complete control) [10]: 0; Plant response rating, Barnyardgrass (0 to 100 scale, 0 is no effect, 100 is complete control) [11]: 0; Plant response rating, Rice (0 to 100 scale, 0 is no effect, 100 is complete control) (rice (Oryza sativa)): 0; Plant response rating, Ducksalad (0 to 100 scale, 0 is no effect, 100 is complete control) [12]: 0; Foxtail, Giant plant response rating [13]: 0; Foxtail, Giant plant response rating (0 to 100 scale) [13]: 30; Ryegrass, Italian plant response rating [14]: 20; Ryegrass, Italian plant response rating (0 to 100 scale) [14]: 50; Barnyardgrass plant response rating [15]: 0; Barnyardgrass plant response rating (0 to 100 scale) [15]: 40; Pigweed plant response rating [16]: 0; Pigweed plant response rating (0 to 100 scale) [16]: 10; Ragweed plant response rating ([17]; 125 g ai/ha, preemergence, 0 to 100 scale, 0 no effect, 100 complete control): 20; Ragweed plant response rating (0 to 100 scale) [17]: 40; Kochia plant response rating (kochia (Kochia scoparia) [18]): 0; Kochia plant response rating (0 to 100 scale) (kochia (Kochia scoparia) [18]): 0
CON=C(c1cccc(C(F)(F)F)c1Cl)c1c(O)c(C)nn(C)c1=O [Compound 103] | 0 | 0 | 30 | 0 | 50 | 0 | 30 | 20 | 30 | 10 | 40 | 20 | 0 | 0 | 20 | 10 | 70 | 40 | 20 | 0 | Plant response rating, Sedge, Umbrella (0 to 100 scale, 0 is no effect, 100 is complete control) [10]: 0; Plant response rating, Barnyardgrass (0 to 100 scale, 0 is no effect, 100 is complete control) [11]: 0; Plant response rating, Rice (0 to 100 scale, 0 is no effect, 100 is complete control) (rice (Oryza sativa)): 0; Plant response rating, Ducksalad (0 to 100 scale, 0 is no effect, 100 is complete control) [12]: 0; Foxtail, Giant plant response rating [13]: 0; Foxtail, Giant plant response rating (0 to 100 scale) [13]: 20; Ryegrass, Italian plant response rating [14]: 30; Ryegrass, Italian plant response rating (0 to 100 scale) [14]: 70; Barnyardgrass plant response rating [15]: 0; Barnyardgrass plant response rating (0 to 100 scale) [15]: 40; Pigweed plant response rating [16]: 0; Pigweed plant response rating (0 to 100 scale) [16]: 50; Ragweed plant response rating (0 to 100 scale) [17]: 50; Kochia plant response rating (kochia (Kochia scoparia) [18]): 0; Kochia plant response rating (0 to 100 scale) (kochia (Kochia scoparia) [18]): 0

Source: patent US20210045385A1, “PYRIDAZINONE-SUBSTITUTED KETOXIMES AS HERBICIDES” (FMC Corporation, priority 2018, published 2021)
